Source: ChEMBL document CHEMBL1201862, “PubChem BioAssay data set” (2004)
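Assay format: 96-well plates, 48-hour exposure. GI50 = concentration required for 50% inhibition of growth.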 The source made the active and inactive calls. No stated cut-off is given here; in the data, active = GI50 up to about 1.1 µM and inactive = higher.

Experiments:
Test in all cases: inhibition of tumour cell growth, NCI panel, 48 h
UACC-257 = test system: UACC-257
OVCAR-5 = test system: OVCAR-5
OVCAR-8 = test system: OVCAR-8
MOLT-4 = test system: MOLT-4
IGROV-1 = test system: IGROV-1
CCRF-CEM = test system: CCRF-CEM
XF498 = test system: XF498
RXF 631 = test system: RXF 631
DLD-1 = test system: DLD-1
K562 = test system: K562
EKVX = test system: EKVX
NCI-H226 = test system: NCI-H226
U-251 = test system: U-251
HT-29 = test system: HT-29
LOX IMVI = test system: LOX IMVI
NCI-H460 = test system: NCI-H460
SN12C = test system: SN12C
LXFL 529 = test system: LXFL 529
HOP-18 = test system: HOP-18
NCI-H23 = test system: NCI-H23
ACHN = test system: ACHN
M14 = test system: M14
DMS-114 = test system: DMS-114
UO-31 = test system: UO-31
HCT-116 = test system: HCT-116
Malme-3M = test system: Malme-3M
OVCAR-3 = test system: OVCAR-3
SK-MEL-5 = test system: SK-MEL-5
DMS-273 = test system: DMS-273
SNB-78 = test system: SNB-78
SK-OV-3 = test system: SK-OV-3
A498 = test system: A498
A549 = test system: A549
SF-295 = test system: SF-295
HL-60 = test system: HL-60
SF-539 = test system: SF-539
RXF 393 = test system: RXF 393
HCT-15 = test system: HCT-15
SW-620 = test system: SW-620
UACC-62 = test system: UACC-62
HOP-62 = test system: HOP-62
SNB-75 = test system: SNB-75
M19-MEL = test system: M19-MEL
SF-268 = test system: SF-268
KM-20L2 = test system: KM-20L2
RPMI-8226 = test system: RPMI-8226
HCC 2998 = test system: HCC 2998
CAKI-1 = test system: CAKI-1
NCI-H522 = test system: NCI-H522
SNB-19 = test system: SNB-19
SR = test system: SR
SK-MEL-2 = test system: SK-MEL-2
TK-10 = test system: TK-10
OVCAR-4 = test system: OVCAR-4
SK-MEL-28 = test system: SK-MEL-28
786-0 = test system: 786-0
KM12 = test system: KM12
HOP-92 = test system: HOP-92
COLO 205 = test system: COLO 205

In the case of `COc1ccc(C(=O)Cc2ccc(Cl)cc2)cc1OC`, the GI50 (UACC-257) is reported as > 100 µM (inactive), the GI50 (OVCAR-5) is reported as > 100 µM (inactive) and the GI50 (OVCAR-8) is reported as > 100 µM (inactive). The GI50 (MOLT-4) was > 100 µM (inactive), the GI50 (IGROV-1) was > 100 µM (inactive) and the GI50 (CCRF-CEM) was > 100 µM (inactive). For the same compound, the GI50 (XF498) was > 100 µM (inactive), the GI50 (RXF 631) was > 100 µM (inactive) and the GI50 (DLD-1) was > 100 µM (inactive). The GI50 (K562) was > 100 µM (inactive), the GI50 (EKVX) was > 100 µM (inactive) and the GI50 (NCI-H226) was > 100 µM (inactive). The GI50 (U-251) was > 100 µM (inactive), the GI50 (HT-29) was > 100 µM (inactive) and the GI50 (LOX IMVI) was > 100 µM (inactive). The GI50 (NCI-H460) was > 100 µM (inactive), the GI50 (SN12C) was > 100 µM (inactive) and the GI50 (LXFL 529) was > 100 µM (inactive). For the same compound, the GI50 (HOP-18) was > 100 µM (inactive), the GI50 (NCI-H23) was > 100 µM (inactive) and the GI50 (ACHN) was > 100 µM (inactive). For the same compound, the GI50 (M14) was > 100 µM (inactive), the GI50 (DMS-114) was > 100 µM (inactive) and the GI50 (UO-31) was > 100 µM (inactive). For the same compound, the GI50 (HCT-116) was > 100 µM (inactive), the GI50 (Malme-3M) was > 100 µM (inactive) and the GI50 (OVCAR-3) was > 100 µM (inactive). For the same compound, the GI50 (SK-MEL-5) was > 100 µM (inactive), the GI50 (DMS-273) was > 100 µM (inactive) and the GI50 (SNB-78) was > 100 µM (inactive). For the same compound, the GI50 (SK-OV-3) was > 100 µM (inactive), the GI50 (A498) was > 100 µM (inactive) and the GI50 (A549) was > 100 µM (inactive). The GI50 (SF-295) was > 100 µM (inactive), the GI50 (HL-60) was > 100 µM (inactive) and the GI50 (SF-539) was > 100 µM (inactive). The GI50 (RXF 393) was > 100 µM (inactive), the GI50 (HCT-15) was over 100 µM and the GI50 (SW-620) was > 100 µM (inactive). The GI50 (UACC-62) was > 100 µM (inactive), the GI50 (HOP-62) was > 100 µM (inactive) and the GI50 (SNB-75) was 34.4 µM (inactive). The GI50 (M19-MEL) was > 100 µM (inactive), the GI50 (SF-268) was > 100 µM (inactive) and the GI50 (KM-20L2) was > 100 µM (inactive). The GI50 (RPMI-8226) was > 100 µM (inactive), the GI50 (HCC 2998) was > 100 µM (inactive) and the GI50 (CAKI-1) was > 100 µM (inactive). For the same compound, the GI50 (NCI-H522) was 64.9 µM (inactive), the GI50 (SNB-19) was > 100 µM (inactive) and the GI50 (SR) was > 100 µM (inactive). The GI50 (SK-MEL-2) was > 100 µM (inactive), the GI50 (TK-10) was > 100 µM (inactive) and the GI50 (OVCAR-4) was > 100 µM (inactive).
`COc1ccc(C=O)c([N+](=O)[O-])c1` was tested, and the GI50 (UACC-257) was 37.7 µM (inactive), the GI50 (OVCAR-8) was 31.6 µM (inactive) and the GI50 (MOLT-4) was 4.31 µM (inactive). For the same compound, the GI50 (IGROV-1) was 98.6 µM (inactive), the GI50 (CCRF-CEM) was 4.51 µM (inactive) and the GI50 (XF498) was 13.3 µM (inactive). The GI50 (RXF 631) was 57.7 µM (inactive), the GI50 (K562) was 3.71 µM (inactive) and the GI50 (EKVX) was 99.5 µM (inactive). For the same compound, the GI50 (NCI-H226) was 44 µM (inactive), the GI50 (U-251) was 13.2 µM (inactive) and the GI50 (HT-29) was 16.9 µM (inactive). For the same compound, the GI50 (LOX IMVI) was 22.1 µM (inactive), the GI50 (NCI-H460) was 37.5 µM (inactive) and the GI50 (SN12C) was 41.7 µM (inactive). The GI50 (SK-MEL-28) was > 100 µM (inactive), the GI50 (HOP-18) was 38.8 µM (inactive) and the GI50 (NCI-H23) was > 100 µM (inactive). For the same compound, the GI50 (ACHN) was 58.6 µM (inactive), the GI50 (M14) was 38.1 µM (inactive) and the GI50 (DMS-114) was 24 µM (inactive). The GI50 (786-0) was 66.2 µM (inactive), the GI50 (UO-31) was 37.7 µM (inactive) and the GI50 (HCT-116) was 4.09 µM (inactive). The GI50 (Malme-3M) was 21.5 µM (inactive), the GI50 (OVCAR-3) was 27.9 µM (inactive) and the GI50 (SK-MEL-5) was 17 µM (inactive). The GI50 (DMS-273) was 25.4 µM (inactive), the GI50 (SNB-78) was 42.4 µM (inactive) and the GI50 (SK-OV-3) was > 100 µM (inactive). The GI50 (A498) was > 100 µM (inactive), the GI50 (A549) was > 100 µM (inactive) and the GI50 (SF-295) was 21 µM (inactive). The GI50 (HL-60) was 4.2 µM (inactive), the GI50 (SF-539) was 20.4 µM (inactive) and the GI50 (RXF 393) was > 100 µM (inactive). The GI50 (HCT-15) was 9.27 µM, the GI50 (SW-620) was 8.24 µM (inactive) and the GI50 (UACC-62) was 52.6 µM (inactive). The GI50 (HOP-62) was 40.7 µM (inactive), the GI50 (KM12) was 22.8 µM (inactive) and the GI50 (SNB-75) was 52.1 µM (inactive). For the same compound, the GI50 (M19-MEL) was 63.5 µM (inactive), the GI50 (SF-268) was > 100 µM (inactive) and the GI50 (KM-20L2) was 14 µM (inactive). For the same compound, the GI50 (RPMI-8226) was 23.1 µM (inactive), the GI50 (HOP-92) was 81.3 µM (inactive) and the GI50 (HCC 2998) was > 10 µM (inactive). For the same compound, the GI50 (NCI-H522) was > 100 µM (inactive), the GI50 (SNB-19) was 64.6 µM (inactive) and the GI50 (COLO 205) was 53.3 µM (inactive). The GI50 (SK-MEL-2) was 35.2 µM (inactive), the GI50 (TK-10) was 87.7 µM (inactive) and the GI50 (OVCAR-4) was 76.6 µM (inactive).
